Test results from ChEMBL document CHEMBL3885881, “DrugMatrix”.

Species: Rattus norvegicus
Assay: DrugMatrix - Regimen: Daily Repeat
Format: toxicity, organism-based, Sprague-Dawley
Set-up: regimen Daily Repeat, gender Male, age 6-8 weeks
Conditions: in vivo, po, route oral GAVAGE, vehicle 100 % WATER; for ABSOLUTE BASOPHIL / ABSOLUTE EOSINOPHIL / ABSOLUTE LYMPHOCYTE / ABSOLUTE MONOCYTE / ABSOLUTE SEGMENTED NEUTROPHIL / BASOPHIL / EOSINOPHIL / ERYTHROCYTE COUNT / HEMATOCRIT / HEMOGLOBIN / LEUKOCYTE COUNT / LYMPHOCYTE / MEAN CORPUSCULAR HEMOGLOBIN / MEAN CORPUSCULAR HEMOGLOBIN CONCENTRATION / MEAN CORPUSCULAR VOLUME / MONOCYTE / NEUTROPHIL / NUCLEATED RED BLOOD CELLS / PLATELET COUNT: tissue Blood; for ALANINE AMINOTRANSFERASE / ALBUMIN / ALKALINE PHOSPHATASE / ASPARTATE AMINOTRANSFERASE / BLOOD UREA NITROGEN / CARBON DIOXIDE / CHLORIDE / CHOLESTEROL / CREATINE PHOSPHOKINASE / CREATININE / GLUCOSE / LACTATE DEHYDROGENASE / LIPASE / PHOSPHORUS / POTASSIUM / SODIUM / TOTAL BILIRUBIN / TOTAL PROTEIN / URIC ACID: tissue Plasma
[1] = 0 mg/kg, 72 h, dose level Control, time 3 day
[2] = 0 mg/kg, 120 h, dose level Control, time 5 day
[3] = 100 mg/kg, 72 h, dose level High, time 3 day
[4] = 100 mg/kg, 120 h, dose level High, time 5 day

CN(C)CCOC(c1ccccc1)c1ccccc1 [DIPHENHYDRAMINE]
ABSOLUTE BASOPHIL [1]: 0 CELLS/uL | ABSOLUTE EOSINOPHIL [1]: 20.17 CELLS/uL | ABSOLUTE LYMPHOCYTE [1]: 12371.67 CELLS/uL | ABSOLUTE MONOCYTE [1]: 166 CELLS/uL | ABSOLUTE SEGMENTED NEUTROPHIL [1]: 1292.17 CELLS/uL | BASOPHIL [1]: 0% | EOSINOPHIL [1]: 0.17% | ERYTHROCYTE COUNT [1]: 5.46 x10E6/uL | HEMATOCRIT [1]: 34.38% | HEMOGLOBIN [1]: 13.32 G/DL | LEUKOCYTE COUNT [1]: 13.85 x10E3/uL | LYMPHOCYTE [1]: 88.5% | MEAN CORPUSCULAR HEMOGLOBIN [1]: 24.42 pg | MEAN CORPUSCULAR HEMOGLOBIN CONCENTRATION [1]: 38.7 G/DL | MEAN CORPUSCULAR VOLUME [1]: 63.07 fL | MONOCYTE [1]: 1.17% | NEUTROPHIL [1]: 10.17% | NUCLEATED RED BLOOD CELLS [1]: 0.17 /100WBC | PLATELET COUNT [1]: 1193.5 x10E3/uL | ALANINE AMINOTRANSFERASE [1]: 54.5 u/L | ALBUMIN [1]: 4.02 G/DL | ALKALINE PHOSPHATASE [1]: 346.5 u/L | ASPARTATE AMINOTRANSFERASE [1]: 103.17 u/L | BLOOD UREA NITROGEN [1]: 16.5 mg/dL | CARBON DIOXIDE [1]: 29.83 mmol/L | CHLORIDE [1]: 99.5 MEQ/L | CHOLESTEROL [1]: 72.5 mg/dL | CREATINE PHOSPHOKINASE [1]: 532.5 u/L | CREATININE [1]: 0.18 mg/dL | GLUCOSE [1]: 168.5 mg/dL | LACTATE DEHYDROGENASE [1]: 536.5 u/L | LIPASE [1]: 11.17 u/L | PHOSPHORUS [1]: 11.48 mg/dL | POTASSIUM [1]: 5.95 MEQ/L | SODIUM [1]: 140.5 MEQ/L | TOTAL BILIRUBIN [1]: 0.18 mg/dL | TOTAL PROTEIN [1]: 5.77 G/DL | URIC ACID [1]: 1.42 mg/dL | ABSOLUTE BASOPHIL [2]: 0 CELLS/uL | ABSOLUTE EOSINOPHIL [2]: 22.83 CELLS/uL | ABSOLUTE LYMPHOCYTE [2]: 12202.83 CELLS/uL | ABSOLUTE MONOCYTE [2]: 158 CELLS/uL | ABSOLUTE SEGMENTED NEUTROPHIL [2]: 1283 CELLS/uL | BASOPHIL [2]: 0% | EOSINOPHIL [2]: 0.17% | ERYTHROCYTE COUNT [2]: 5.88 x10E6/uL | HEMATOCRIT [2]: 36.62% | HEMOGLOBIN [2]: 14.07 G/DL | LEUKOCYTE COUNT [2]: 13.67 x10E3/uL | LYMPHOCYTE [2]: 89.5% | MEAN CORPUSCULAR HEMOGLOBIN [2]: 23.95 pg | MEAN CORPUSCULAR HEMOGLOBIN CONCENTRATION [2]: 38.43 G/DL | MEAN CORPUSCULAR VOLUME [2]: 62.28 fL | MONOCYTE [2]: 1.17% | NEUTROPHIL [2]: 9.17% | NUCLEATED RED BLOOD CELLS [2]: 0.17 /100WBC | PLATELET COUNT [2]: 1198 x10E3/uL | ALANINE AMINOTRANSFERASE [2]: 51 u/L | ALBUMIN [2]: 4.3 G/DL | ALKALINE PHOSPHATASE [2]: 343 u/L | ASPARTATE AMINOTRANSFERASE [2]: 89.83 u/L | BLOOD UREA NITROGEN [2]: 17.67 mg/dL | CARBON DIOXIDE [2]: 27.17 mmol/L | CHLORIDE [2]: 98.33 MEQ/L | CHOLESTEROL [2]: 82.5 mg/dL | CREATINE PHOSPHOKINASE [2]: 533.33 u/L | CREATININE [2]: 0.18 mg/dL | GLUCOSE [2]: 152.67 mg/dL | LACTATE DEHYDROGENASE [2]: 220.33 u/L | LIPASE [2]: 11.5 u/L | PHOSPHORUS [2]: 11.25 mg/dL | POTASSIUM [2]: 6.29 MEQ/L | SODIUM [2]: 140.53 MEQ/L | TOTAL BILIRUBIN [2]: 0.22 mg/dL | TOTAL PROTEIN [2]: 6.12 G/DL | URIC ACID [2]: 1.42 mg/dL | ABSOLUTE BASOPHIL [3]: 0 CELLS/uL | ABSOLUTE EOSINOPHIL [3]: 48.67 CELLS/uL | ABSOLUTE LYMPHOCYTE [3]: 13023.67 CELLS/uL | ABSOLUTE MONOCYTE [3]: 77 CELLS/uL | ABSOLUTE SEGMENTED NEUTROPHIL [3]: 750.67 CELLS/uL | BASOPHIL [3]: 0% | EOSINOPHIL [3]: 0.33% | ERYTHROCYTE COUNT [3]: 5.83 x10E6/uL | HEMATOCRIT [3]: 36.17% | HEMOGLOBIN [3]: 14.33 G/DL | LEUKOCYTE COUNT [3]: 13.9 x10E3/uL | LYMPHOCYTE [3]: 93.67% | MEAN CORPUSCULAR HEMOGLOBIN [3]: 24.6 pg | MEAN CORPUSCULAR HEMOGLOBIN CONCENTRATION [3]: 39.67 G/DL | MEAN CORPUSCULAR VOLUME [3]: 62.07 fL | MONOCYTE [3]: 0.67% | NEUTROPHIL [3]: 5.33% | NUCLEATED RED BLOOD CELLS [3]: 0 /100WBC | PLATELET COUNT [3]: 1203 x10E3/uL | ALANINE AMINOTRANSFERASE [3]: 46.67 u/L | ALBUMIN [3]: 4 G/DL | ALKALINE PHOSPHATASE [3]: 345.33 u/L | ASPARTATE AMINOTRANSFERASE [3]: 88.67 u/L | BLOOD UREA NITROGEN [3]: 16.67 mg/dL | CARBON DIOXIDE [3]: 30.33 mmol/L | CHLORIDE [3]: 100.33 MEQ/L | CHOLESTEROL [3]: 78 mg/dL | CREATINE PHOSPHOKINASE [3]: 422.33 u/L | CREATININE [3]: 0.14 mg/dL | GLUCOSE [3]: 146 mg/dL | LACTATE DEHYDROGENASE [3]: 334.67 u/L | LIPASE [3]: 11.67 u/L | PHOSPHORUS [3]: 12.1 mg/dL | POTASSIUM [3]: 6.05 MEQ/L | SODIUM [3]: 141 MEQ/L | TOTAL BILIRUBIN [3]: 0.17 mg/dL | TOTAL PROTEIN [3]: 5.67 G/DL | URIC ACID [3]: 1.3 mg/dL | ABSOLUTE BASOPHIL [4]: 0 CELLS/uL | ABSOLUTE EOSINOPHIL [4]: 0 CELLS/uL | ABSOLUTE LYMPHOCYTE [4]: 12726.67 CELLS/uL | ABSOLUTE MONOCYTE [4]: 228 CELLS/uL | ABSOLUTE SEGMENTED NEUTROPHIL [4]: 1012 CELLS/uL | BASOPHIL [4]: 0% | EOSINOPHIL [4]: 0% | ERYTHROCYTE COUNT [4]: 5.75 x10E6/uL | HEMATOCRIT [4]: 34.8% | HEMOGLOBIN [4]: 13.73 G/DL | LEUKOCYTE COUNT [4]: 13.97 x10E3/uL | LYMPHOCYTE [4]: 91.33% | MEAN CORPUSCULAR HEMOGLOBIN [4]: 23.9 pg | MEAN CORPUSCULAR HEMOGLOBIN CONCENTRATION [4]: 39.47 G/DL | MEAN CORPUSCULAR VOLUME [4]: 60.53 fL | MONOCYTE [4]: 1.67% | NEUTROPHIL [4]: 7% | NUCLEATED RED BLOOD CELLS [4]: 0 /100WBC | PLATELET COUNT [4]: 1281 x10E3/uL | ALANINE AMINOTRANSFERASE [4]: 54.33 u/L | ALBUMIN [4]: 3.93 G/DL | ALKALINE PHOSPHATASE [4]: 386 u/L | ASPARTATE AMINOTRANSFERASE [4]: 79.33 u/L | BLOOD UREA NITROGEN [4]: 16.67 mg/dL | CARBON DIOXIDE [4]: 25.67 mmol/L | CHLORIDE [4]: 99 MEQ/L | CHOLESTEROL [4]: 60 mg/dL | CREATINE PHOSPHOKINASE [4]: 323.33 u/L | CREATININE [4]: 0.11 mg/dL | GLUCOSE [4]: 154.67 mg/dL | LACTATE DEHYDROGENASE [4]: 155.33 u/L | LIPASE [4]: 11.33 u/L | PHOSPHORUS [4]: 11.47 mg/dL | POTASSIUM [4]: 6.2 MEQ/L | SODIUM [4]: 141.53 MEQ/L | TOTAL BILIRUBIN [4]: 0.2 mg/dL | TOTAL PROTEIN [4]: 5.5 G/DL | URIC ACID [4]: 1.97 mg/dL
